Data reported in US20040038855A1 (priority 1999, published 2004).
Read-outs that look alike come from different tables or passages of the source.

Tests used:
[1] = molecular target: T1, human Histamine H1 receptor (Homo sapiens, UniProt P35367); experiment: Binding affinity at the human histamine H1 receptor; conditions: Table 3c; read-out: hH1 Ki
T1 construct: expressed in transfected cells
Description: (§1) Other receptors: Cell membranes expressing human dopamine D1, D2, D4 and rat D3 receptors were purchased through BioSignal, Inc. (Montreal, Canada). Binding assays using the histamine H1 receptor; dopamine receptors; and α1A, α1B, and α2 adrenergic receptors may be carried out according to the procedures described in U.S. Pat. No. 5,780,485, the disclosure of which is hereby incorporated by reference in its entirety into this application. Binding assays using the dopamine D5 receptor may be carried out according to the procedures described in U.S. Pat. No. 5,882,855, the disclosure of which is hereby incorporated by reference in its entirety into this application. Binding assays for the human α1D adrenergic receptor may be carried out according to the procedures described in U.S. Pat. No. 6,156,518, the disclosure of which is hereby incorporated by reference in its entirety into this application.

[2] = molecular target: T2, human Dopamine D2 receptor (Homo sapiens, UniProt P14416); experiment: Binding affinity at the human dopamine D2 receptor; conditions: Table 3c; read-out: hD2 Ki
T2 construct: purchased BioSignal, Inc. (Montreal, Canada)
Description: as §1

[3] = molecular target: T3, rat MCH1 receptor (Rattus norvegicus, UniProt P97639); experiment: Binding affinity (Ki) at the rat MCH1 receptor
T3 construct: expressed in transfected cells
Experimental: For binding assays, pellets of transfected cells are suspended in ice-cold buffer (20 mM Tris.HCl, 5 mM EDTA, pH 7.4) and homogenized by sonication for 7 sec. The cell lysates are centrifuged at 200×g for 5 min at 4° C. The supernatants are then centrifuged at 40,000×g for 20 min at 4° C. The resulting pellets are washed once in the homogenization buffer and suspended in binding buffer (see methods for radioligand binding). Protein concentrations are determined by the method of Bradford (1976) using bovine serum albumin as the standard. Binding assays are usually performed immediately, however it is possible to prepare membranes in batch and store frozen in liquid nitrogen for future use.
Binding is performed at 25° C. for 1 hr. Incubations are terminated by rapid vacuum filtration over GF/C glass fiber filters, presoaked in 5% PEI using 50 mM Tris pH 7.4 containing 0.01% triton X-100 as wash buffer.
A methanolic solution of methyl (4S)-3-({[3-(4-[3-(acetylamino)phenyl]-3,6-dihydro-1(2H)pyridinyl)propyl]amino}carbonyl)-4-(3,4-difluorophenyl)-6-(methoxymethyl)-2-oxo-1,2,3,4-tetrahydro-5-pyrimidinecarboxylate was exposed to tritium gas at 1 atmosphere pressure in the presence of 5% palladium on carbon with stirring overnight to give the tritiated methyl (4S)-3-{[(3-{4-[3-(acetylamino)phenyl]-1-piperidinyl}propyl)amino]carbonyl}-4-(3,4-difluorophenyl)-6-(methoxymethyl)-2-oxo-1,2,3,4-tetrahydro-5-pyrimidinecarboxylate ((+)-isomer) After purification by reverse phase HPLC (Hypersil ODS, 4.6×100 mm, methanol:H2O:Et3N 10:90:1 to 100:0:1 in 15 min at 1.0 mL/min, with radiochemical and UV detection), this product was used as a radioligand in the MCH1 binding assays. The same procedure was carried out with H2 gas in place of ^3H2 to afford the non-radioactive version of Compound 10.

[4] = molecular target: T4, human Alpha-1a Adrenergic receptor (Homo sapiens, UniProt P35348); experiment: Binding affinity at the human alpha-1A adrenergic receptor; conditions: Table 3c; read-out: hAlpha-1a Ki
T4 construct: expressed in transfected cells
T4 sequence (P35348 1-466): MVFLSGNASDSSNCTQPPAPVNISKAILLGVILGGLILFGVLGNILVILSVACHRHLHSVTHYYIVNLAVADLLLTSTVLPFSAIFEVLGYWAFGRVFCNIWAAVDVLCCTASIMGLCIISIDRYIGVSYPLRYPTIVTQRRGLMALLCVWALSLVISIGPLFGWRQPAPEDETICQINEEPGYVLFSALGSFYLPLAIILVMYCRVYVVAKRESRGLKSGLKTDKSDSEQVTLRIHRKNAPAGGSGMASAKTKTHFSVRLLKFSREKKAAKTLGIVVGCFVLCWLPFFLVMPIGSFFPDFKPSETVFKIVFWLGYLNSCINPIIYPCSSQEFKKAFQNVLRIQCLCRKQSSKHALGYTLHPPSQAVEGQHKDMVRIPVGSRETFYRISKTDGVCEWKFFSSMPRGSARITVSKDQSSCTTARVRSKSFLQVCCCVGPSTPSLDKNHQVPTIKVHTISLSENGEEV
Description: as §1

[5] = Examples 38-141, read-out: Ki (nM) rMCH1

T3 sequence (P97639 whole entry): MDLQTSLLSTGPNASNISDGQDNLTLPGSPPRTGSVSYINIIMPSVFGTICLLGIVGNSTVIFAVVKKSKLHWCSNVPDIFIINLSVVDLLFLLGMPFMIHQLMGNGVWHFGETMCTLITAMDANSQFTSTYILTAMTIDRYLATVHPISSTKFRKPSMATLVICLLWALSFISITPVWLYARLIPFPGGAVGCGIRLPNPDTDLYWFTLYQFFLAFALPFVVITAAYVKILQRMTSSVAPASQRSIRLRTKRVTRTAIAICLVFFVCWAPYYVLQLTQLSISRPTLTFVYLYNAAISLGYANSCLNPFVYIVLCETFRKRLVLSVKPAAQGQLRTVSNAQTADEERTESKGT
T2 sequence (P14416 whole entry): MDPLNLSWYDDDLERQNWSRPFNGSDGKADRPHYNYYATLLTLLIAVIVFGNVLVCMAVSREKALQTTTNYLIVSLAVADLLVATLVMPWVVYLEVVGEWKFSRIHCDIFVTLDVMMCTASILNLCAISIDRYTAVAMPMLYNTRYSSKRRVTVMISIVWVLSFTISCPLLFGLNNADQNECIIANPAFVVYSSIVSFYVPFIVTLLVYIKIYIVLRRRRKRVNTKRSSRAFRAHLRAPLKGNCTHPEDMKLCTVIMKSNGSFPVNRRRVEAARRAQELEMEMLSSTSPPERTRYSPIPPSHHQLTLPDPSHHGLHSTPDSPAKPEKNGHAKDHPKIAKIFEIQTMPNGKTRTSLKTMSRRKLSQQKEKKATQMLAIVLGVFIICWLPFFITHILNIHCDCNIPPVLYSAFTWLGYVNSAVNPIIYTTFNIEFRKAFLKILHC
T1 sequence (P35367 whole entry): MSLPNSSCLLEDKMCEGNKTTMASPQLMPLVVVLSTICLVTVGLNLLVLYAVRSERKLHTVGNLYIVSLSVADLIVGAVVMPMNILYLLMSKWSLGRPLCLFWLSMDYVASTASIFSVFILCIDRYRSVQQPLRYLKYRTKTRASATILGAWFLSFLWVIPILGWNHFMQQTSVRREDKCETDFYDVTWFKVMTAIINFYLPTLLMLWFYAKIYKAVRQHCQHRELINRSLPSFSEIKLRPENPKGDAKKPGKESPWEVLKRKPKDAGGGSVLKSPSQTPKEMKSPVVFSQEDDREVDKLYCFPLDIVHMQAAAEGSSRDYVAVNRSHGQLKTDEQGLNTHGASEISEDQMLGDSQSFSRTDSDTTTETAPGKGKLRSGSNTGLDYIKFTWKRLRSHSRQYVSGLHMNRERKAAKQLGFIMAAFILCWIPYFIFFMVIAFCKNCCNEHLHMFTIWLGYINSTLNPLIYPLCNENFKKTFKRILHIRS

Row | SMILES | Ki [1] [nM] | Ki [2] [nM] | Ki [3, 5] [nM] | Ki ([3]; Table 3c, read-out: rMCH1 Ki) [nM] | Ki [4] [nM]
1 | COCC(=O)Nc1cccc(C2CCN(CCCNC(=O)N3C(=O)NC(COC)=C(C(=O)OC)[C@@H]3c3ccc(F)c(F)c3)CC2)c1 [Example 39, METHYL (4S)-4-(3,4-DIFLUOROPHENYL)-3-({[3-(4-{3-[(METHOXYACETYL)AMINO]PHENYL}-1-PIPERIDINYL)PROPYL]AMINO}CARBONYL)-6-(METHOXYMETHYL)-2-OXO-1,2,3,4-TETRAHYDRO-5-PYRIMIDINECARBOXYLATE] | 5660 | 25100 | 3.33 | 3.33 | 25.5
2 | COCC1=C(C(=O)OC)[C@H](c2ccc(F)c(F)c2)N(C(=O)NCCCN2CCC(c3cccc(NC(=O)CC(C)(C)C)c3)CC2)C(=O)N1 [Example 40, METHYL (4S)-4-(3,4-DIFLUOROPHENYL)-3-({[3-(4-{3-[(3,3-DIMETHYLBUTANOYL)AMINO]PHENYL}-1-PIPERIDINYL)PROPYL]AMINO}CARBONYL)-6-(METHOXYMETHYL)-2-OXO-1,2,3,4-TETRAHYDRO-5-PYRIMIDINECARBOXYLATE] | 7120 | 2650 | 2.72 | 2.72 | 8.72
3 | CCC(=O)Nc1cccc(C2CCN(CCCNC(=O)N3C(=O)NC(COC)=C(C(=O)OC)[C@@H]3c3ccc(F)c(F)c3)CC2)c1 [Example 41, METHYL (4S)-4-(3,4-DIFLUOROPHENYL)-6-(METHOXYMETHYL)-2-OXO-3-{[(3-{4-[3-(PROPIONYLAMINO)PHENYL]-1-PIPERIDINYL)PROPYL)AMINO]CARBONYL}-1,2,3,4-TETRAHYDRO-5-PYRIMIDINECARBOXYLATE] | 4540 | 9610 | 0.04 | 0.04 | 14.3
4 | COCC1=C(C(=O)OC)[C@H](c2ccc(F)c(F)c2)N(C(=O)NCCCN2CCC(c3cccc(NC(=O)CC(C)C)c3)CC2)C(=O)N1 [Example 42, METHYL (4S)-4-(3,4-DIFLUOROPHENYL)-6-(METHOXYMETHYL)-3-({[3-(4-{3-[(3-METHYLBUTANOYL)AMINO]PHENYL}-1-PIPERIDINYL)PROPYL]AMINO}CARBONYL)-2-OXO-1,2,3,4-TETRAHYDRO-5-PYRIMIDINECARBOXYLATE] | 7800 | 3270 | 0.6 | 0.6 | 10.9
5 | CCCC(=O)Nc1cccc(C2CCN(CCCNC(=O)N3C(=O)NC(COC)=C(C(=O)OC)[C@@H]3c3ccc(F)c(F)c3)CC2)c1 [Example 44, METHYL (4S)-3-{[(3-{4-[3-(BUTYRYLAMINO)PHENYL]-1-PIPERIDINYL}PROPYL)AMINO]CARBONYL}-4-(3,4-DIFLUOROPHENYL)-6-(METHOXYMETHYL)-2-OXO-1,2,3,4-TETRAHYDRO-5-PYRIMIDINECARBOXYLATE] | 2590 | 3610 | 0.09 | 0.09 | 11.4
6 | CCCC(=O)Nc1cccc(C2CCN(CCCNC(=O)C3=C(COC)NC(=O)N[C@@H]3c3ccc(F)c(F)c3)CC2)c1 [Example 45] | 4430 | > 50000 | 14.7 | 14.7 | 6030
7 | CCC(=O)Nc1cccc(C2CCN(CCCNC(=O)C3=C(COC)NC(=O)N[C@@H]3c3ccc(F)c(F)c3)CC2)c1 [Example 46] | 2870 | > 50000 | 8.16 | 8.16 | 2420
8 | COCC1=C(C(=O)NCCCN2CCC(c3cccc(NC(=O)CC(C)C)c3)CC2)[C@@H](c2ccc(F)c(F)c2)NC(=O)N1 [Example 47] | 3250 | 13500 | 34.3 | 34.3 | 553
9 | CC(=O)Nc1cccc(C2CCN(CCCC(=O)c3ccc(C)c(C)c3)CC2)c1 [Example 57] | 823 | 6090 | 90 | 90 | 49
10 | COc1cccc(CC(=O)Nc2cccc(C3CCN(CCCC(=O)c4ccc(C)c(C)c4)CC3)c2)c1 [Example 61] | 1620 | 1140 | 14.2 | 14.2 | 9.1
11 | O=C(Cc1ccccc1)Nc1cccc(C2CCN(CCCC(=O)c3ccc(Cl)cc3)CC2)c1 [Example 68] | 571 | 771 | 84 | 84 | 57

The next lines start with the values.

Row | Ki [1] [nM] | Ki [2] [nM] | Ki [3, 5] [nM] | Ki ([3]; Table 3c, read-out: rMCH1 Ki) [nM] | Ki [4] [nM] | SMILES
12 | 7770 | > 50000 | 22.1 | 22.1 | 16600 | CCC(C)C(=O)Nc1cccc(C2CCN(CCCNC(=O)C3=C(COC)NC(=O)N[C@@H]3c3ccc(F)c(F)c3)CC2)c1 (stereo partly shown) [Example 48]
13 | 7470 | 19800 | 13.7 | 13.7 | 10400 | COCC1=C(C(=O)NCCCN2CCC(c3cccc(NC(=O)C(C)C)c3)CC2)[C@@H](c2ccc(F)c(F)c2)NC(=O)N1 [Example 50]
14 | 1230 | 6640 | 0.79 | 0.79 | 10.1 | CC(=O)Nc1cccc(C2CCN(CCCNC(=O)N3C(=O)NC(C)=C(C(C)=O)C3c3cc(F)c(F)c(F)c3)CC2)c1 (stereo not shown) [Example 51]
15 | 1430 | 166 | 0.81 | 0.81 | 200 | CCC1=C(C(=O)OCc2ccccc2)C(c2ccc(F)cc2F)N(C(=O)NCCCN2CCC(c3cccc(NC(C)=O)c3)CC2)C(=O)N1 (stereo not shown) [Example 52, BENZYL 3-{[(3-{4-[3-(ACETYLAMINO)PHENYL]-1-PIPERIDINYL}PROPYL)AMINO]CARBONYL}-4-(2,4-DIFLUOROPHENYL)-6-ETHYL-2-OXO-1,2,3,4-TETRAHYDRO-5-PYRIMIDINECARBOXYLATE]
16 | 10400 | 3450 | 50.8 | 50.8 | 2310 | CC(=O)Nc1cccc(C2CCN(CCCNC(=O)N3C(=O)NC4=C(C(=O)OC4)C3c3ccc4c(c3)OCO4)CC2)c1 (stereo not shown) [Example 53]
17 | 11400 | 23000 | 29.9 | 29.9 | 11100 | COC(=O)C1=C(C)N=C(SCc2ccc(OC)cc2)N(C(=O)NCCCN2CCC(c3cccc(NC(C)=O)c3)CC2)C1c1ccc([N+](=O)[O-])cc1 (stereo not shown) [Example 54, METHYL 1-{[(3-{4-[3-(ACETYLAMINO)PHENYL]-1-PIPERIDINYL}PROPYL)AMINO]CARBONYL}-2-[(4-METHOXYBENZYL)SULFANYL]-4-METHYL-6-(4-NITROPHENYL)-1,6-DIHYDRO-5-PYRIMIDINECARBOXYLATE]
18 | 7230 | 10400 | 0.26 | 0.26 | 305 | COC(=O)C1=C(C)NC(=O)N(C(=O)NCCCN2CCC(c3cccc(NC(C)=O)c3)CC2)[C@H]1c1ccc(F)c(F)c1 [Example 56, METHYL (4S)-3-{[(3-{4[3-(ACETYLAMINO)PHENYL]-1-PIPERIDINYL}PROPYL)AMINO]CARBONYL}-4-(3,4-DIFLUOROPHENYL)-6-METHYL-2-OXO-1,2,3,4-TETRAHYDRO-5-PYRIMIDINECARBOXYLATE]
19 | 1730 | 1430 | 69 | 69 | 26.4 | CC(=O)Nc1cccc(C2CCN(CCCC(=O)c3ccc(Cl)cc3)CC2)c1 [Example 65]
20 | 2280 | 5180 | 52 | 52 | 284 | COc1ccc(C(=O)CCCN2CCC(c3cccc(NC(=O)C(C)C)c3)CC2)c(OC)c1 [Example 78]
